The subject of series [1] is Staphylococcus aureus. The experiment in a line: Antimicrobial activity against methicillin-resistant Staphylococcus aureus CBD-635 assessed as complete inhibition of bacterial growth after overnight incubation. The format is functional.
The test system of series [2] is Staphylococcus aureus. Put plainly: Antimicrobial activity against methicillin-resistant Staphylococcus aureus CBD-635 assessed as complete inhibition of bacterial growth at 5 times MIC after overnight incubation in presence of tetrahydrofolic acid. The format is functional, organism-based.
The test system of series [3] is Staphylococcus aureus. Put plainly: Antimicrobial activity against N2,N4-dibenzylquinazoline-2,4-diamine-induced methicillin-resistant Staphylococcus aureus CBD-635 mutant M1 assessed as complete inhibition of bacterial growth after overnight incubation. The format is functional.
Series [4] has as its system Staphylococcus aureus. Put plainly: Antimicrobial activity against N2,N4-dibenzylquinazoline-2,4-diamine-induced methicillin-resistant Staphylococcus aureus CBD-635 mutant M6 assessed as complete inhibition of bacterial growth after overnight incubation. It counts as functional.
For series [5], the system named is Staphylococcus aureus. Put plainly: Antimicrobial activity against N2,N4-dibenzylquinazoline-2,4-diamine-induced methicillin-resistant Staphylococcus aureus CBD-635 mutant M3 assessed as complete inhibition of bacterial growth after overnight incubation. The format is functional.
Series [6] relates to Staphylococcus aureus. Put plainly: Antimicrobial activity against N2,N4-dibenzylquinazoline-2,4-diamine-induced methicillin-resistant Staphylococcus aureus CBD-635 mutant M4 assessed as complete inhibition of bacterial growth after overnight incubation. The format is functional.
The subject of series [7] is Staphylococcus aureus. The experiment in a line: Antimicrobial activity against N2,N4-dibenzylquinazoline-2,4-diamine-induced methicillin-resistant Staphylococcus aureus CBD-635 mutant M7 assessed as complete inhibition of bacterial growth after overnight incubation. The format is functional.
Series [8] concerns Staphylococcus aureus. Put plainly: Antimicrobial activity against N2,N4-dibenzylquinazoline-2,4-diamine-induced methicillin-resistant Staphylococcus aureus CBD-635 mutant M5 assessed as complete inhibition of bacterial growth after overnight incubation. It counts as functional.
In series [9] the test system is Staphylococcus aureus. Put plainly: Antimicrobial activity against N2,N4-dibenzylquinazoline-2,4-diamine-induced methicillin-resistant Staphylococcus aureus CBD-635 mutant M2 assessed as complete inhibition of bacterial growth after overnight incubation. It counts as functional.
The test system of series [10] is Staphylococcus aureus. The experiment in a line: Antimicrobial activity against wild type Staphylococcus aureus in presence of sulfamethoxazole. It counts as functional.
In series [11] the test system is Staphylococcus aureus. The experiment in a line: Bactericidal activity against methicillin-resistant Staphylococcus aureus CBD-635 assessed as bacterial killing. The format is functional.
Series [12] concerns Staphylococcus aureus. Put plainly: Antimicrobial activity against Staphylococcus aureus infected Galleria mellonella assessed as increase in larvae survival at 10 times MIC. The format is functional.
Series [13] concerns Staphylococcus aureus. The experiment in a line: Antimicrobial activity against quinazoline-resistant Staphylococcus aureus assessed as complete inhibition of bacterial growth after 24 hrs. The format is functional, organism-based.
Series [14] deals with Staphylococcus aureus. Put plainly: Antimicrobial activity against Staphylococcus aureus infected Galleria mellonella assessed as increase in larvae survival at 5 times MIC. The format is functional.
The subject of series [15] is Staphylococcus aureus. Put plainly: Antimicrobial activity against trimethoprim-resistant Staphylococcus aureus assessed as complete inhibition of bacterial growth after 24 hrs. The format is functional, organism-based.
Series [16] in a line: physchem. The settings on record: pampa, pH 7.4.
The nature of series [17]: physchem. As to conditions: pampa, pH 4.

Structures are written as SMILES. Converted amounts (≈) assume the structure as drawn. The source made the active and inactive calls. Bounds are passed on as bounds.

One may read the MIC as the least concentration at which growth counts as inhibited. On to `Clc1ccc(CNc2nc(NCc3ccccc3)c3ccccc3n2)cc1`, for which the MIC in the series on Staphylococcus aureus [1] came out at 27 µM (≈ 10.1 µg/mL); in the series with Staphylococcus aureus [3] it was 27 µM (≈ 10.1 µg/mL); with Staphylococcus aureus [4], 2.7 µM (≈ 1.01 µg/mL); in the series on Staphylococcus aureus [5] it was 2.7 µM (≈ 1.01 µg/mL); in the series with Staphylococcus aureus [6] it was 2.7 µM (≈ 1.01 µg/mL); with Staphylococcus aureus [7] it was 2.7 µM (≈ 1.01 µg/mL). Also, the MIC in the series on Staphylococcus aureus [8] and with Staphylococcus aureus [9] was 2.7 µM (≈ 1.01 µg/mL) each time. Besides, the inhibition entry with Staphylococcus aureus [2] was “inactive”.
With `Clc1ccc(CNc2nc(NCc3ccccc3)nc3ccccc23)cc1`, the MIC worked out at 67 µM (≈ 25.1 µg/mL) in the series on Staphylococcus aureus [1]; 2.7 µM (≈ 1.01 µg/mL) in the series on Staphylococcus aureus [3]; 2.7 µM (≈ 1.01 µg/mL) in the series on Staphylococcus aureus [4]; 2.7 µM (≈ 1.01 µg/mL) with Staphylococcus aureus [5]; 2.7 µM (≈ 1.01 µg/mL) in the series on Staphylococcus aureus [6]; 2.7 µM (≈ 1.01 µg/mL) in the series on Staphylococcus aureus [7]. Besides, the MIC in the series with Staphylococcus aureus [8] and in the series with Staphylococcus aureus [9] was 2.7 µM (≈ 1.01 µg/mL) each time. Further, the inhibition entry in the series on Staphylococcus aureus [2] is “inactive”.
For `Clc1ccc2c(NCc3ccccc3)nc(NCc3ccccc3)nc2c1`, the MIC in the series with Staphylococcus aureus [1] was 27 µM (≈ 10.1 µg/mL); in the series with Staphylococcus aureus [3], 27 µM (≈ 10.1 µg/mL); with Staphylococcus aureus [4] it was 2.7 µM (≈ 1.01 µg/mL); in the series with Staphylococcus aureus [5] it was 2.7 µM (≈ 1.01 µg/mL); in the series with Staphylococcus aureus [6], 2.7 µM (≈ 1.01 µg/mL); in the series on Staphylococcus aureus [7] it was 2.7 µM (≈ 1.01 µg/mL). Moreover, the MIC worked out at 2.7 µM (≈ 1.01 µg/mL) in the series on Staphylococcus aureus [8] and 27 µM (≈ 10.1 µg/mL) in the series with Staphylococcus aureus [9]. The inhibition result in the series with Staphylococcus aureus [2] is “inactive”.
In the case of `COc1ccc(CNc2nc(NCc3ccc(OC)cc3)c3ccccc3n2)cc1`, the MIC with Staphylococcus aureus [1] was 25 µM (≈ 10 µg/mL); with Staphylococcus aureus [3], > 250 µM; with Staphylococcus aureus [4] it was 125 µM (≈ 50.1 µg/mL); with Staphylococcus aureus [5], > 250 µM; in the series on Staphylococcus aureus [6] it was > 250 µM; in the series on Staphylococcus aureus [7], > 250 µM. Moreover, the MIC was 125 µM (≈ 50.1 µg/mL) in the series on Staphylococcus aureus [8] and > 250 µM with Staphylococcus aureus [9]. Moreover, in the series with Staphylococcus aureus [2], the inhibition result is “inactive”.
As to `Clc1ccc(CNc2nc(NCc3ccc(Cl)cc3)c3ccccc3n2)cc1`, the MIC in the series with Staphylococcus aureus [1], with Staphylococcus aureus [3] and with Staphylococcus aureus [9] was 2.4 µM (≈ 0.982 µg/mL) throughout. Further, the inhibition entry in the series on Staphylococcus aureus [2] is “inactive”. Moreover, in the series with Staphylococcus aureus [10], the “fractional inhibitory concentration index (FICI)” value was found to be 0.12. Also, the MBC50 with Staphylococcus aureus [11] was determined as 7.2 µM (≈ 2.95 µg/mL). In addition, the Survival in the series with Staphylococcus aureus [12] is listed as 60%; in the series with Staphylococcus aureus [14] it was 50%. Besides, the inhibition result with Staphylococcus aureus [13] and in the series with Staphylococcus aureus [15] was “Active” in each case.
In general, Papp refers to a coefficient for how fast a substance crosses the barrier. Turning to `CNC(=C[N+](=O)[O-])NCCSCc1ccc(CN(C)C)o1.Cl` [RANITIDINE HYDROCHLORIDE], the figures for the Papp in the series “physchem [16]” and in “physchem [17]” were 2.2 ×10⁻⁶ cm/s and 5.2 ×10⁻⁶ cm/s, respectively.
`Cc1ccc(CNc2nc(NCc3ccccc3)nc3ccccc23)cc1`: the MIC in the series with Staphylococcus aureus [1] was determined as 71 µM (≈ 25.2 µg/mL); in the series with Staphylococcus aureus [3] it was 2.8 µM (≈ 0.992 µg/mL); with Staphylococcus aureus [4] it was 28 µM (≈ 9.92 µg/mL); in the series on Staphylococcus aureus [5] it was 28 µM (≈ 9.92 µg/mL); with Staphylococcus aureus [6] it was 28 µM (≈ 9.92 µg/mL); in the series on Staphylococcus aureus [7], 28 µM (≈ 9.92 µg/mL). Also, the results for the MIC in the series with Staphylococcus aureus [8] and in the series with Staphylococcus aureus [9] were 28 µM (≈ 9.92 µg/mL) and 2.8 µM (≈ 0.992 µg/mL), respectively. Moreover, the inhibition result in the series on Staphylococcus aureus [2] is “inactive”.
Regarding `COc1ccc(CNc2nc(NCc3ccccc3)c3ccccc3n2)cc1`, the MIC with Staphylococcus aureus [1] turned out to be 0.67 µM (≈ 0.248 µg/mL); in the series on Staphylococcus aureus [3], 0.67 µM (≈ 0.248 µg/mL); with Staphylococcus aureus [4], 270 µM (≈ 100 µg/mL); in the series on Staphylococcus aureus [5] it was 0.67 µM (≈ 0.248 µg/mL); in the series on Staphylococcus aureus [6], 270 µM (≈ 100 µg/mL); in the series on Staphylococcus aureus [7] it was 270 µM (≈ 100 µg/mL). Also, the MIC was found to be 270 µM (≈ 100 µg/mL) in the series on Staphylococcus aureus [8] and 0.67 µM (≈ 0.248 µg/mL) in the series on Staphylococcus aureus [9]. For the same compound, the inhibition entry in the series on Staphylococcus aureus [2] was “inactive”.
For `COc1ccc(CNc2nc(NCc3ccccc3)nc3ccccc23)cc1`, the MIC in the series on Staphylococcus aureus [1] was determined as 68 µM (≈ 25.2 µg/mL); with Staphylococcus aureus [3], 27 µM (≈ 10 µg/mL); with Staphylococcus aureus [4] it was 2.7 µM (≈ 1 µg/mL); in the series with Staphylococcus aureus [5] it was 27 µM (≈ 10 µg/mL); in the series on Staphylococcus aureus [6], 2.7 µM (≈ 1 µg/mL); in the series on Staphylococcus aureus [7] it was 27 µM (≈ 10 µg/mL). Moreover, the MIC with Staphylococcus aureus [8] and in the series with Staphylococcus aureus [9] was 27 µM (≈ 10 µg/mL) throughout. Also, the inhibition entry in the series with Staphylococcus aureus [2] is “inactive”.

Values taken from ChEMBL document CHEMBL3259619, “Antibacterial activity of a series of N2,N4-disubstituted quinazoline-2,4-diamines” (J Med Chem, 2014).
